Measurements: patent US20100190743A1, “Method and Composition for Treatment of a Mucosal Tissue Disorder” (Chitogenics, Inc., priority 2005, published 2010)

Assays:
interstitial cystitis = settings: cited from earlier work
[1] = test system: rat model of Interstitial Cystitis; experiment: Efficacy of sNOCC in reducing inflammation in a rat model of interstitial cystitis (Example 2), bladder histology inflammatory score; format: in vivo
Description: Animals: Female Sprague-Dawley rats (225-250 g) were purchased from Charles River Laboratories. Animals were provided with food and water ad libitum. Intra-vesicular inoculation of protamine sulfate (PS) and LPS: Rats were anesthetized with sodium pentobarbital (65 mg/kg). The surface area around the urethral opening was swabbed with 70% isopropyl alcohol and Betadine. A lubricated sterile catheter (PE-50), handled with sterile gloves, was inserted into the bladder through the urethral opening. The catheter was connected to a 1 ml syringe via a 25 G needle and the bladder was emptied as described above. One group of rats was inoculated with 1 ml PS (10 mg/ml) in phosphate buffered saline (PBS) into the bladder via the catheter. After 45 minutes, the bladders were emptied, washed with PBS, then given a second treatment with 1 ml LPS (750 μg/ml) in PBS for 30 minutes. […]
The parameters of inflammation measured were: increased venous blood vessel size and volume (venous congestion), edema, cellular infiltration, and epithelial damage. […] The parameters were measured by a blinded observer using a five point score with 0 being the least severe and 5 being the most severe. A total inflammatory score was calculated for each rat by adding together the scores of the four inflammatory parameters. A mean total inflammatory score was calculated for each group. […]

## C[S+](C)[O-] [DMSO, dimethylsulfoxide]
Interstitial cystitis; instillation into the bladder for six to eight weeks
  average length of response: six
Interstitial cystitis; instillation into the bladder for six to eight weeks, placebo 18%
  response rate: 53%

## oxychlorosene sodium
Interstitial cystitis; Messing et al. 1978
  results relative to instillation of DMSO: Equivalent results

## Nc1ccc(O)c(C(=O)O)c1 [saline + 5ASA, 5-aminosalicylic acid]
[1]; agent 1 ml intravesical 1 day after PS/LPS, sacrifice day 5 post inoculation, total of four parameters each scored 0-5, saline control 12.7 (±1.5)
  Mean Inflammatory Score (±SEM): 7.9 (±1.8)
[1]; from mean inflammatory score, day 5 post inoculation
  % reduction of inflammation from saline treated control: 37.5%
